Experimental data taken from PMC10467108, “Of Seven New K^+ Channel Inhibitor Peptides of Centruroides bonito, α-KTx 2.24 Has a Picomolar Affinity for Kv1.2” (Toxins, 2023).
Where a SMILES comes first, the peptide text is derived from it. Bridges are numbered along the chain shown (N, C = ends).

What was measured:
hKv1.1 = target: T1, hKv1.1 (Homo sapiens, UniProt Q09470); test: Whole-cell patch-clamp of Kv1.1 currents in transiently transfected CHO cells; format: cell-based
T1 construct: host or cells: CHO cells, transient transfection (Lipofectamine 2000)
Procedure: (§1) Macroscopic Kv1.1 and Kv1.2 currents were measured in transiently transfected CHO cells. For Kv1.3 current recording, human T lymphocytes were activated by Phytohemagglutinin A (PHA) to increase Kv1.3 channel expression, and micro-pipettes were filled with Ca^2+-free solution to prevent KCa3.1 channel activation. K^+ currents were evoked by applying 15-ms-long depolarization pulses to +50 mV from a holding potential of −120 mV except for Kv1.2, as it has highly variable activation kinetics; therefore, 15–500 ms-long pulses were applied to maximize the open probability of Kv1.2 channel. CboK peptide toxins were dissolved in a freshly prepared extracellular solution and applied to the whole-cell patch-clamped cells using a micro perfusion system at 200 μL/min flow rate.
(§2) CHO cells were transiently transfected by using Lipofectamine 2000 kit (Invitrogen, Carlsbad, CA, USA), as per the manufacturer’s protocol with vector pCMV6-AC-GFP (cat# RG211000 and RC222200; OriGene Technologies, Rockville, MD, USA) encoding hKv1.1 (hKCNA1 gene) or hKv1.2 (hKCNA2 gene) ion channels. Cells were grown under standard conditions in an incubator at 37 °C and 5% CO2 for 24 h. GFP-positive transfected cells were identified by utilizing a Nikon TMS fluorescence microscope (Nikon, Tokyo, Japan) using bandpass filters of 455–495 nm and 515–555 nm for excitation and emission, respectively.
(§3) The patch-clamp technique was used for measuring whole-cell currents in voltage-clamped mode using standard protocols. Electrophysiological recordings were acquired by using Multiclamp 700B amplifier connected to a personnel computer with an Axon Digidata1440 digitizer (Molecular Devices, Sunnyvale, CA, USA). Pipettes were pulled from GC150F-15 borosilicate capillaries (Harvard Apparatus, Kent, UK) having 3−5 MΩ tip resistance in the bath solution. All current recordings were carried out at room temperature (20−25 °C) and only those currents were recorded and subjected to analyses when the leak current at holding potential was <5% of peak current at the test potential. Current traces were lowpass-filtered by utilizing the built-in analog four-pole Bessel filters of the amplifiers and were sampled at 20 kHz which is at least twice the filter cut-off frequency. A gravity-driven perfusion system was used to perfuse the cells with control and test solutions and excess fluid was removed continuously through vacuum suction. The extracellular solution (bath solution) contained 145 mM NaCl, 5.5 mM glucose, 5 mM KCl, 2.5 mM CaCl2, 1 mM MgCl2, and 10 mM HEPES, having pH of 7.35 and an osmolarity between 302 and 308 mOsM/L. Toxins were dissolved in bath solution at different molar concentrations and supplemented with 0.1 mg/mL of bovine serum albumin BSA (Sigma-Aldrich, Budapest, Hungary). The intracellular solution (pipette filling) was comprised of 140 mM KF, 2 mM MgCl2, 1 mM CaCl2, 10 mM HEPES, and 11 mM EGTA, with a pH of 7.22 and an osmolarity of ~295 mOsM/L.
(§4) Generally, to evoke the Kv1.xcurrents, 15-ms-long depolarization pulses to +50 mV from a holding potential of −120 mV were applied, and the current traces were recorded after every 15 s. However, in the case of Kv1.2, due to its variable activation kinetics, the duration of the depolarization pulse was set between 15 and 500 ms to attain the saturated peak current.

hKv1.2 = target: T2, hKv1.2 (Homo sapiens, UniProt P16389); test: Whole-cell patch-clamp of Kv1.2 currents in transiently transfected CHO cells; format: cell-based; conditions: Hill fit of RCF vs toxin concentration, n ≥ 3
T2 construct: GFP (C); host or cells: CHO cells, transient transfection (Lipofectamine 2000)
Procedure: as §1, §2, §3, §4

Kv1.3 [1] = target: T3, Kv1.3 (Homo sapiens, UniProt P22001); test: Whole-cell patch-clamp of Kv1.3 currents in PHA-activated human T lymphocytes; format: cell-based
T3 construct: endogenous in cells
Procedure: as §1
Isochronal RCF data points obtained this way (isochronal RCF = I4ms/I4ms,0 where I4ms,0 and I4ms are the currents at 4 ms time point in the absence and presence of CboK peptides, respectively) at different toxin concentrations were fitted with the Hill equation to obtain concentration–response curves as shown in Figure 6H.
Human peripheral venous blood was acquired from anonymous healthy volunteers from the blood bank. Blood samples were collected by having approval from the Ethical Committee of the Hungarian Medical Research Council (36255-6/2017/EKU). PBMCs were separated by Histopaque 1077 (Sigma-Aldrich, Budapest, Hungary) separation technique, and isolated cells, at the density of 5 × 10^5 cells, were cultured in RPMI 1640 media (Gibco, Grand Island, NY, USA) supplemented with 10% FBS (Sigma-Aldrich, Budapest, Hungary), 2 mM L-glutamine, […], and […] penicillin in a humidified incubator at 37 °C and 5% CO2 for 3–6 days. A measure of 2, 5, or 10 μg/mL of Phytohemagglutinin A (PHA) (Sigma-Aldrich, Budapest, Hungary) was added in cultured cells to activate the PBMCs and upregulate the Kv1.3 expression.
as §3, with “suction.” for “suction. The extracellular solution (bath solution) contained 145 mM NaCl, 5.5 mM glucose, 5 mM KCl, 2.5 mM CaCl2, 1 mM MgCl2, and 10 mM HEPES, having pH of 7.35 and an osmolarity between 302 and 308 mOsM/L. Toxins were dissolved in bath solution at different molar concentrations and supplemented with 0.1 mg/mL of bovine serum albumin BSA (Sigma-Aldrich, Budapest, Hungary). The intracellular solution (pipette filling) was comprised of 140 mM KF, 2 mM MgCl2, 1 mM CaCl2, 10 mM HEPES, and 11 mM EGTA, with a pH of 7.22 and an osmolarity of ~295 mOsM/L.”

Kv1.3 [2] = target: T3, Kv1.3; test: as above; format: cell-based; conditions: 1 µM toxin, end of 15-ms pulse to 0 mV (Figure 6E)
Kv1.1 = target: Kv1.1; design: method as in 3 sources, ref 40 (CoTx1), 32 (CoTx2) ||| ref 33 = [33]; PMID 26921461; doi:10.1016/j.toxicon.2016.02.017; 33. Olamendi-Portugal T. Bartok A. Zamudio-Zuñiga F. Balajthy A. Becerril B. Panyi G. Possani L.D. Isolation, chemical and functional characterization of several new K+-channel blocking peptides from ||| ref 33 (II-x toxins), 40 (CoTx1); conditions: no reference given; read-out: Kd for Kv1.1 (positive control concentration equivalent to Kd); cited from earlier work
Kv1.3 [3] = conditions: no reference given; read-out: Kd for Kv1.3 (positive control concentration equivalent to Kd); cited from earlier work

T1 sequence (Q09470 whole entry): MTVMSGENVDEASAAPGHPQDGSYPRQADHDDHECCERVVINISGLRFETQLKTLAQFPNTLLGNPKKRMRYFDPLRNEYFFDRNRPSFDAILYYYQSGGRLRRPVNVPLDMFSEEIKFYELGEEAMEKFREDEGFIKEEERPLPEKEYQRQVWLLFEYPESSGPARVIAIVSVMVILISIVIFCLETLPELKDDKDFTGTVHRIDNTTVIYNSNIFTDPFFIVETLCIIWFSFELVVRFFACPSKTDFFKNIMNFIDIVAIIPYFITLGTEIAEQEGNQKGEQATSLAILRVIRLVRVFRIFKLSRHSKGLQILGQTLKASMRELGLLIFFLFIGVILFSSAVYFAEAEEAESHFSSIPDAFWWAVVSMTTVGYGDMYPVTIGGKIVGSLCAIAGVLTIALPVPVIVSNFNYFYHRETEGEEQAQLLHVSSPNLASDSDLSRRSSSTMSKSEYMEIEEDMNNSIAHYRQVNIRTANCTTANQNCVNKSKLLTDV
T3 sequence (P22001 whole entry): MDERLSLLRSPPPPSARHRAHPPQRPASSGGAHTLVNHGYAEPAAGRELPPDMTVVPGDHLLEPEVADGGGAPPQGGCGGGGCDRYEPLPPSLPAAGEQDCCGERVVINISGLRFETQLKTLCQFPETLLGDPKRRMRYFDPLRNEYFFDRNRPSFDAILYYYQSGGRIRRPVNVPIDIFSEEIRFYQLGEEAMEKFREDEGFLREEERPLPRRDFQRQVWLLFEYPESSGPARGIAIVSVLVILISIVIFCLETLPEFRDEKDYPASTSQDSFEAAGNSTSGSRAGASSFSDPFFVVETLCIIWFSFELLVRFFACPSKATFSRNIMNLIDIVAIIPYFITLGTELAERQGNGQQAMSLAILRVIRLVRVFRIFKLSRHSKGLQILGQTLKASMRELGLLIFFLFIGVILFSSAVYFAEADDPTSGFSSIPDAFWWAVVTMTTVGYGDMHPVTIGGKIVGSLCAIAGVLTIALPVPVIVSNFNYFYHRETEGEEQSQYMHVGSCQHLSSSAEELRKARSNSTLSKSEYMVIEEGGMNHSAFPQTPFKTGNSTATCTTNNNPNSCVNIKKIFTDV
T2 sequence (P16389 whole entry): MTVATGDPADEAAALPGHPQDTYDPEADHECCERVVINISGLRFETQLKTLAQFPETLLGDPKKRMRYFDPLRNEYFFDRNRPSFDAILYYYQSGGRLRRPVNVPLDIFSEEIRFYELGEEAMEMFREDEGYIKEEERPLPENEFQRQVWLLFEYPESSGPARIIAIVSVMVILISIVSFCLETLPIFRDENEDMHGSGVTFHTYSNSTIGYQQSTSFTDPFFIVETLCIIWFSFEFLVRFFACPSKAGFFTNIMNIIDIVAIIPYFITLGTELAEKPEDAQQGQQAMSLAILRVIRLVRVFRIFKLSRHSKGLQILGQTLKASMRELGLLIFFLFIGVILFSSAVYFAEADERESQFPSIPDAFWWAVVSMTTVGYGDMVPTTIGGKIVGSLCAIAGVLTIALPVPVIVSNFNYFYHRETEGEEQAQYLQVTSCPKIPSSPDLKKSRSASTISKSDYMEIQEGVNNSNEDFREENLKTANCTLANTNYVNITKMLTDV

Q: What does the source list for `CC[C@H](C)[C@@H]1NC(=O)[C@@H]2CSSC[C@H](NC(=O)[C@@H](NC(=O)[C@@H](N)[C@@H](C)O)C(C)C)C(=O)N[C@@H](C(C)C)C(=O)N[C@@H](Cc3ccc(O)cc3)C(=O)N[C@@H](CCCNC(=N)N)C(=O)N[C@@H]([C@@H](C)O)C(=O)N[C@H]3CSSC[C@H](NC(=O)[C@H](C)NC(=O)[C@H](CC(N)=O)NC(=O)[C@H](CC(N)=O)NC1=O)C(=O)N[C@@H](CCCCN)C(=O)N[C@H](C(=O)N[C@@H](Cc1ccc(O)cc1)C(=O)N1CCC[C@H]1C(=O)N[C@@H](Cc1ccc(O)cc1)C(=O)O)CSSC[C@H](NC(=O)[C@H](CC(=O)O)NC(=O)[C@H](CCCCN)NC(=O)[C@H](CC(=O)O)NC3=O)C(=O)N[C@@H](CCCCN)C(=O)N[C@@H](CCCNC(=N)N)C(=O)N[C@@H](CCCNC(=N)N)C(=O)NCC(=O)N[C@@H](Cc1ccc(O)cc1)C(=O)N[C@@H](CCCNC(=N)N)C(=O)N[C@@H](CO)C(=O)NCC(=O)N[C@@H](CCCCN)C(=O)N2` [CboK2] (H-TVCVYRTCDKDCKRRGYRSGKCINNACKCYPY-OH; disulfide 3-22, 8-27, 12-29)?
A: effect on Kv1.1 currents (hKv1.1; 100 nM toxin): did not block; Kd (hKv1.1; this study, screened at 100 nM, read-out: Kd Values Kv1.1 (symbol)): > 0.1 µM; Kd (hKv1.2; cumulative application, equilibrium block, pulses to +50 mV from -120 mV, read-out: Kd for Kv1.2): 0.000763 µM; Hill coefficient H, Kv1.2 block (hKv1.2): 1.5; remaining current fraction (RCF) of Kv1.3 at +50 mV (Kv1.3 [1]; 1 µM toxin, end of 15-ms pulse to +50 mV (Figure 6C)): ~ 0.34; Hill coefficient H, Kv1.3 block (Kv1.3 [1]; Hill fit of isochronal RCF (4 ms), n ≥ 3): 0.8; Kd (Kv1.3 [1]; Hill fit of isochronal RCF (current at 4 ms), 15-ms pulses to +50 mV from -120 mV, n ≥ 3, read-out: Kd for Kv1.3): 0.171 µM; remaining current fraction (RCF) of Kv1.3 at 0 mV (Kv1.3 [2]): ~ 0.23

Q: Which results are given for `CC[N+](CC)(CC)CC` [TEA, tetraethylammonium, reference compound]?
A: reduction in Kv1.1 current by positive control (hKv1.1; 0.3 mM TEA, equilibrium block): Approximately 50%; reduction in Kv1.3 current by positive control (Kv1.3 [1]; 10 mM TEA, equilibrium block): Approximately 50%; Kd (Kv1.1): 300 µM; Kd (Kv1.3 [3]): 10000 µM
